The record followed here is patent US12358948B2, “Neurotensinergic agonists and methods of using same preventing or treating pain” (priority 2019, dated 2025).

Each structure is given as a SMILES string. pIC50: −log10 of the molar value. *1 amine or outer side, *2 acyl side, *3 side chain or, on linkers, in order; H or OH if unused. Where a SMILES comes first, the peptide text is derived from it. Bridges are numbered along the chain shown (N, C = ends). [ ]: non-standard residue; d: D form. Phe(4-CF3) = N[C@@H](Cc1ccc(C(F)(F)F)cc1)C(=O)O; X1 = O=C(C1C[C@@H]2CCCC[C@@H]2N1[*:1])[*:2]; Dip = N[C@H](C(=O)O)C(c1ccccc1)c1ccccc1; Ala(cPr) = N[C@@H](CC1CC1)C(=O)O; 2Pal = N[C@@H](Cc1ccccn1)C(=O)O; dAllylGly = C=CC[C@@H](N)C(=O)O; Cit = NC(=O)NCCC[C@H](N)C(=O)O; AllylGly = C=CC[C@H](N)C(=O)O; Cba = N[C@@H](CC1CCC1)C(=O)O; Pen = CC(C)(S)[C@H](N)C(=O)O; S5 = C=CCCC[C@](C)(N)C(=O)O; Orn = NCCC[C@H](N)C(=O)O; Nva = CCC[C@H](N)C(=O)O

One test concerns the target T1, hNTS1 receptor (Homo sapiens, UniProt P30989).
T1 construct: membranes prepared from them
The experiment in a line: Competitive radioligand binding assay on the hNTS1 receptor. To be noted: displacement of 125I-[Tyr3]-NT, membranes of CHO-K1 cells expressing hNTS1; read-out: IC50 NTS1. As to the method: (§1) CHO-K1 (Chinese Hamster Ovary) cells stably expressing hNTS1 and 1321N1 cells stably expressing hNTS2 (ES-690-C and ES-691-C from PerkinElmer, Montréal, Canada) were cultured respectively in Ham's F12 and in DMEM culture media. Culture media were supplemented with 10% FBS, 100 U/mL penicillin, 100 μg/mL streptomycin, 20 mM HEPES, and 0.4 mg/mL G418 at 37° C. in a humidified chamber at 5% CO2.
(§2) The cells expressing hNTS1 were frozen when they reached 80% confluency. They were scrapped off the dish with 10 mM Tris buffer, 1 mM EDTA, pH 7.5 and centrifuged at 15,000 g for 5 min at 4° C. The pellet was then re-suspended in 1 mL binding buffer. The cells expressing hNTS2 were also frozen when they reached 80% confluency. They were scraped off the dish with PBS, 0.5 mM EDTA, pH 7.5 and sonicated for 5 minutes (pulse 30 s/5 s off, amplitude 40%). They were ultracentrifuged at 100 000 g for 60 minutes at 4° C. The pellet was re-suspended in 1 mL freezing buffer (PBS, glycerol, 0.5 mM EDTA), sonicated for 1 minute (pulse 30 s/5 s off, amplitude 50%) and further diluted in binding buffer. Competitive radioligand binding experiments were performed by incubating 15 μg of cell membranes expressing the hNTS1 receptor with […] of ^125I-[Tyr^3]-NT (2200 Ci/mmol) or 50 μg of cell membranes expressing the hNTS2 receptor with […] of ^125I-[Tyr^3]-NT in binding buffer (50 mM Tris-HCl, pH 7.5, 0.2% BSA) in the presence of increasing concentrations of analogues ranging from 10^−11 to 10^−4 M for 60 min at 25° C. After incubation, the binding reaction mixture was transferred in PEI-coated 96-well filter plates (glass fiber filters GF/B, Millipore, Billerica, MA). Reaction was terminated by filtration, and plates were washed three times with 200 μL ice-cold binding buffer. Glass filters were then counted using a γ-counter (2470 Wizard2, PerkinElmer, Mississauga, Ontario, Canada). Non-specific binding was measured in the presence of 10^−5 M unlabeled NT (8-13) and represented less than 5% of total binding. IC50 values were determined from competition curves as the unlabeled ligand concentration inhibiting 50% of ^125I-[Tyr^3]-NT-specific binding.
(§3) Competitive radioligand binding data were plotted using the nonlinear regression One-site-Fit Log(IC50) and represented the mean±SEM of at least three independent experiments in triplicates.

The target in another test is T2, hNTS2 receptor (Homo sapiens, UniProt O95665).
T2 construct: membranes prepared from them
T2 sequence (O95665 whole entry): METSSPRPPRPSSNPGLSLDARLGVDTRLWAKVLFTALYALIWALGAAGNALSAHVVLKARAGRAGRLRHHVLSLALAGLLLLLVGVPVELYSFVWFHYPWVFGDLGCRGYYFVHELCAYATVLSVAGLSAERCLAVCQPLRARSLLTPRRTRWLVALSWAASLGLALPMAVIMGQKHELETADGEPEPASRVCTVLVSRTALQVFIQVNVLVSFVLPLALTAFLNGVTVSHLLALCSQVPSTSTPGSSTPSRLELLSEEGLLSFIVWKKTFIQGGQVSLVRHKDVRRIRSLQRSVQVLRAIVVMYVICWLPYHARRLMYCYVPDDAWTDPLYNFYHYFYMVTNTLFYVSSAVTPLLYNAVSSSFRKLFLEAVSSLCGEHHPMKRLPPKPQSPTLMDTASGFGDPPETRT
The experiment in a line: Competitive radioligand binding assay on the hNTS2 receptor. To be noted: for IC50: displacement of 125I-[Tyr3]-NT, membranes of 1321N1 cells expressing hNTS2, read-out: IC50 NTS2 (converted); for Selectivity: ratio IC50 for NTS1 : IC50 for NTS2. As to the method: as §1, §2, §3

T1 sequence (P30989 whole entry): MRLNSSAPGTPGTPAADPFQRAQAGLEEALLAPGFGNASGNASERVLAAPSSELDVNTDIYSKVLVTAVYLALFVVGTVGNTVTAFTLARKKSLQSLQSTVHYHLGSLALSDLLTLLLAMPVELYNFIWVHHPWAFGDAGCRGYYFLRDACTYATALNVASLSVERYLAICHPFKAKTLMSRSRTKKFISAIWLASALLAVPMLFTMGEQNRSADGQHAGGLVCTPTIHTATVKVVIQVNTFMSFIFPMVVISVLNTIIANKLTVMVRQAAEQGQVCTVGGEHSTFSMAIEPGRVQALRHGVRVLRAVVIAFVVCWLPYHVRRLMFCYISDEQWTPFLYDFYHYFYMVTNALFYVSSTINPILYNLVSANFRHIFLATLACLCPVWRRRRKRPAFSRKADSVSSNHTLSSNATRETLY

Take `CC(C)C[C@H](NC(=O)C1C[C@@H]2CCCC[C@@H]2N1C(=O)[C@@H]1CC=CC[C@H](N)C(=O)N[C@@H](CCCCN)C(=O)N[C@@H](CCCCN)C(=O)N1)C(=O)O` (stereo partly drawn) [compound 166, c[G(All)KKG(All)p (octahydroindol)L] (H-[AllylGly]KK[AllylGly][X1]L-OH; staple 1-4): at hNTS1 receptor, the pIC50 (commonly the negative decadic logarithm of the IC50, by convention in mol/L) is below 4.00. Further, on hNTS2 receptor, the IC50 (in general, the point on the concentration scale where inhibition reaches its midpoint) is 0.0333 µM and the Selectivity is given as 3006.
For `CC(C)C[C@H](NC(=O)[C@H](Cc1ccc(C(F)(F)F)cc1)NC(=O)[C@@H]1CC=CC[C@H](N)C(=O)N[C@@H](CCCCN)C(=O)N[C@@H](CCCCN)C(=O)N1)C(=O)O` [compound 111, c[G(All)KKG(All)]F(4-CF3)L] (H-[AllylGly]KK[AllylGly][Phe(4-CF3)]L-OH; staple 1-4) the same measures were below 4.00, 0.0479 µM and above 2087.
For `CC(C)C[C@H](NC(=O)[C@H](Cc1ccc(O)cc1)NC(=O)[C@@H]1CC=CC[C@H](N)C(=O)N[C@@H](CCCCN)C(=O)N[C@@H](CCCNC(N)=O)C(=O)N1)C(=O)O` [compound 146, c[G(All)KcitrullineG(All)]YL] (H-[AllylGly]K[Cit][AllylGly]YL-OH; staple 1-4) the same measures were below 4.00, 0.698 µM and 143.
For `CCC[C@@H]1NC(=O)[C@@H](N)CC=CC[C@@H](C(=O)N[C@@H](Cc2ccc(O)cc2)C(=O)N[C@@H](CC(C)C)C(=O)O)NC(=O)[C@H](CCCCN)NC1=O` [compound 86, c[G(All)NvaKG(All)]YL] (H-[AllylGly][Nva]K[AllylGly]YL-OH; staple 1-4) the same measures were below 4.00, 0.743 µM and above 135.
On to `CC(C)C[C@H](NC(=O)[C@H](Cc1ccccc1)NC(=O)[C@@H]1CC=CC[C@H](N)C(=O)N[C@@H](CCCCN)C(=O)N[C@@H](CCCCN)C(=O)N1)C(=O)O` [compound 76, c[G(All)KKG(All)FL] (H-[AllylGly]KK[AllylGly]FL-OH; staple 1-4), for which the pIC50 on hNTS1 receptor was below 4.00. On hNTS2 receptor, the IC50 was 0.0851 µM and the Selectivity is reported as above 1175.
For `CC(C)C[C@H](NC(=O)[C@H](Cc1ccc(O)cc1)NC(=O)[C@@H]1CC=CC[C@H](N)C(=O)N[C@@H](CCCCN)C(=O)N[C@@H](CCCN)C(=O)N1)C(=O)O` [compound 51, c[G(All)KOrnG(All)]YL] (H-[AllylGly]K[Orn][AllylGly]YL-OH; staple 1-4) the same measures were below 4.00, 0.0703 µM and above 1422.
For `NCCCC[C@@H]1NC(=O)[C@H](CCCCN)NC(=O)[C@@H](N)CC=CC[C@@H](C(=O)N[C@@H](Cc2ccc(O)cc2)C(=O)N[C@@H](CC2CCC2)C(=O)O)NC1=O` [compound 66, c[G(All)KKG(All)]YA(cyclobutyl)] (H-[AllylGly]KK[AllylGly]Y[Cba]-OH; staple 1-4) the same measures were below 4.00, 0.0272 µM and above 3682.
For `CC(C)C[C@H](NC(=O)[C@H](Cc1ccc(O)cc1)NC(=O)[C@@H]1CSSC[C@H](N)C(=O)N[C@@H](CCCCN)C(=O)N[C@@H](CCCCN)C(=O)N1)C(=O)O` [compound 152, c[CKKC]YL] (H-CKKCYL-OH; disulfide 1-4) the same measures were below 3.00, 1.4 µM and 7.
On to `CC(C)C[C@H](NC(=O)[C@H](Cc1ccccn1)NC(=O)[C@@H]1CC=CC[C@H](N)C(=O)N[C@@H](CCCCN)C(=O)N[C@@H](CCCCN)C(=O)N1)C(=O)O` [compound 165, c[G(All)KKG(All)]A(2-pyridyl)L] (H-[AllylGly]KK[AllylGly][2Pal]L-OH; staple 1-4), for which the pIC50 at hNTS1 receptor is below 4.00. For the same compound, at hNTS2 receptor, the IC50 is 0.509 µM and the Selectivity was 20.
For `CC(C)C[C@H](NC(=O)[C@H](Cc1ccc(Br)cc1)NC(=O)[C@@H]1CC=CCCC(=O)N[C@@H](CCCCN)C(=O)N[C@@H](CCCCN)C(=O)N1)C(=O)O` [compound 131, c[K(pentenoyl)KG(All)](4-bromo)L] the same measures were below 4.00, 0.0274 µM and 3650.
Taken in the same sequence, the figures for `CC(C)C[C@H](NC(=O)[C@@H](NC(=O)[C@@H]1CC=CC[C@H](N)C(=O)N[C@@H](CCCCN)C(=O)N[C@@H](CCCCN)C(=O)N1)C(c1ccccc1)c1ccccc1)C(=O)O` [compound 140, c[G(All)KKG(All)]A (diphenyl)L] (H-[AllylGly]KK[AllylGly][Dip]L-OH; staple 1-4) were below 4.00, 0.631 µM and 158.
In the case of `CC(C)C[C@H](NC(=O)[C@H](CCCCN)NC(=O)[C@@H]1CC=CC[C@H](N)C(=O)N[C@@H](CCCCN)C(=O)N[C@@H](CCCCN)C(=O)N1)C(=O)O` [compound 17, c[G(All)KKG(All)]KL] (H-[AllylGly]KK[AllylGly]KL-OH; staple 1-4), the pIC50 on hNTS1 receptor was below 4.00. For the same compound, at hNTS2 receptor, the IC50 is 1.1 µM and the Selectivity was 90.9.
For `CC(C)C[C@H](NC(=O)[C@H](Cc1ccc(O)cc1)NC(=O)[C@H]1NC(=O)[C@H](CCCCN)NC(=O)[C@H](CCCCN)NC(=O)[C@@H](N)CSSC1(C)C)C(=O)O` [compound 153, c[CKKPen]YL] (H-CKK[Pen]YL-OH; disulfide 1-4) the same measures were below 4.00, 0.0348 µM and 2871.
For `NCCCC[C@@H]1NC(=O)[C@H](CCCCN)NC(=O)[C@@H](N)CC=CC[C@@H](C(=O)N[C@@H](Cc2ccc(O)cc2)C(=O)N[C@@H](CC2CC2)C(=O)O)NC1=O` [compound 65, c[G(All)KKG(All)]YA(cyclopropyl)] (H-[AllylGly]KK[AllylGly]Y[Ala(cPr)]-OH; staple 1-4) the same measures were below 4.00, 0.312 µM and above 321.
For `CC(C)C[C@H](NC(=O)[C@H](Cc1ccc(O)cc1)NC(=O)[C@@H]1CC=CCCC[C@](C)(N)C(=O)N[C@@H](CCCCN)C(=O)N[C@@H](CCCCN)C(=O)N1)C(=O)O` [compound 89, c[G(alpha-Me-(4-Pentenyl))KKG(All)]YL] (H-[S5]KK[AllylGly]YL-OH; staple 1-4) the same measures were below 4.00, 0.0132 µM and above 7553.
As for `CC(C)C[C@H](NC(=O)[C@@H](Cc1c[nH]c2ccccc12)NC(=O)[C@@H]1CC=CC[C@H](N)C(=O)N[C@@H](CCCCN)C(=O)N[C@@H](CCCCN)C(=O)N1)C(=O)O` [compound 43, c[G(All)KKG(All)]W*L] (H-[AllylGly]KK[AllylGly][dW]L-OH; staple 1-4), the pIC50 on hNTS1 receptor was below 4.00. On hNTS2 receptor, the IC50 was 0.968 µM and the Selectivity is on record as above 103.3.
For `CC(C)C[C@H](NC(=O)[C@H](Cc1ccc(O)cc1)NC(=O)[C@H]1CC=CC[C@@H](N)C(=O)N[C@@H](CCCCN)C(=O)N[C@@H](CCCCN)C(=O)N1)C(=O)O` [compound 42, c[G*(All)KKG*(All)]YL] (H-[dAllylGly]KK[dAllylGly]YL-OH; staple 1-4) the same measures were below 4.00, 2.3 µM and above 42.
Take `CC(C)C[C@H](NC(=O)[C@H](Cc1ccc(O)cc1)NC(=O)[C@@H]1CC=CC[C@H](N)C(=O)N[C@@H](CCCCN)C(=O)N[C@@H](Cc2c[nH]cn2)C(=O)N1)C(=O)O` [compound 55, c[G(All)KHG(All)]YL] (H-[AllylGly]KH[AllylGly]YL-OH; staple 1-4): the negative-log IC50 (pIC50) on hNTS1 receptor is below 4.00. On hNTS2 receptor, the 50% inhibitory concentration (IC50) is 0.57 µM and the Selectivity was above 175.
Taken in the same sequence, the figures for `CC(C)C[C@H](NC(=O)[C@H](Cc1ccc(Br)cc1)NC(=O)C1(C)CCCC=CCCC(=O)N[C@@H](CCCCN)C(=O)N[C@@H](CCCCN)C(=O)N1)C(=O)O` (stereo partly drawn) [compound 136, c[PentenoylKKG(alpha-Me-(4-pentenyl))]F(4-bromo)L] were below 4.00, 0.0377 µM and 2653.
